The values that follow come from patent US6080780A, “Use of nitroflavonoids for the treatment of anxiety” (University of Strathclyde, priority 1995, dated 2000).

Molecules are shown by their SMILES. “And” between values parts separate entries of the source, which are not always exact repeats. Equal values may be shown once. Read-outs that look alike come from different tables or passages of the source.

One series relates to mice. Description: Locomotor activity test in mice. Type of series: in vivo, male Swiss mice. The conditions noted are these: i.p. How it is done:
(§1) Adult male Wistar rats weighing 250 g were used for biochemical experiments. Adult male Swiss male weighing 25-30 g were used for pharmacological assays except for inhibitory avoidance and tail flick tests were done in rats. Animals were housed in a controlled environment, with free access to food and water and maintained on a 12 h/12 h day/night cycle.
An Opto-varimex® apparatus was used according to Viola et al. (1994). The apparatus discriminates between total and ambulatory activities. An increase in the number of transitions through the beams reflects augmented locomotor activity. In this and all following tests in mice, animals were i.p. injected with the vehicle, or with DNF 20 min before the beginning of the tests. In each session, control mice were tested in parallel with those animals receiving drug treatment.

The target in series [1] is central benzodiazepine receptors (BDZ-Rs). Nature of the series: 3H-FNZ binding to rat brain synaptosomal membranes (Section 3). The conditions noted are these: rat cerebral cortex; read-out: Ki, 3H-FNZ binding. How it is done: In brief, for each assay, triplicate samples of the membranes, containing 0.2 to 0.4 mg protein were suspended in a final volume of 1 mL of 0.25 mM Tris--HCl buffer, pH 7.3. The incubation was carried out at 4° C. for 60 min with 0.6 nM ^3 H--FNZ. to study the binding saturation, a range of 0.3 to 10 nM ^3 H--FNZ was used. […] The assays were terminated by filtration under vacuum through Whatman GF/A glass-fiber filters, and three washes with 3 mL each of incubation medium. Filters were dried and counted after the addition of 5 mL of 2,5-diphenyloxazole/xylene as scintillation fluid.
The binding of ^3 H--FNZ was carried out as for (i) above.

A further series concerns α1 adrenergic receptors. Nature of the series: [3H]-prazosin binding. The conditions noted are these: 20 μM; data not shown. How it is done:
(§2) Additional binding studies were performed as described elsewhere: [^3 ]-prazosin binding for α1 adrenergic receptors (Medina et al., 1984), [^3 H]-dihidroalprenolol binding for β adrenergic receptors (Medina et al. 1984), [^3 H]-quinuclinidyl benzylate binding for muscarinic cholinergic receptors (Jerusalinksy et al., 1983), [^3 H]-muscimol binding for GABAλ receptors (Medina et al., 1983) and [^3 H]-8-Hydroxydipropylaminotetralin ([^3 H]--OH--DPAT) binding for serotonin (5-HTlλ) receptors (Nenonene et al., 1984).

A further series relates to rats. Nature of the series: Inhibitory avoidance test in rats. Type of series: in vivo, rat. How it is done:
This test was performed according to Izquierdo et al., (1990). The training apparatus was a 50×25×25 cm acrylic box with a frontal glass panel and a floor made of parallel 1 mm caliber bronze bars spaced […] apart. A 5 cm high, 7 cm wide formica platform was placed on the loft extreme of the box. Rats were placed on the platform and their latency to step-down placing their four paws on the grid was measured. On stepping-down they received a 0.35 mA, 2 s scrambled footshock and were withdrawn from the box (training session). The test session was carried out 20 h later and was similar to the training session in all respects except that the footshock was omitted. Test step-down latency (to a ceiling of 180 s) was taken as a measure of retention of inhibitory avoidance (Izquierdo et al., 1990).

In series [2] the test system is serotonin (5-HTlλ) receptors. Nature of the series: [3H]-8-OH-DPAT binding. The conditions noted are these: 20 μM; data not shown. The protocol: as §2
The target of series [3] is central benzodiazepine receptor. Nature of the series: [3H]-FNZ binding to crude synaptosomal membranes from rat CNS regions. The arrangement: species or system rat (Wistar). The following applies: read-out: Ki, [3H]-FNZ binding. The protocol:
as §1
(§3) Displacement curves were performed using [^3 ]-FNZ or [^3 H]-zolpidem ([^3 H]-ZOLP) as radioligands in washed crude synaptosomal membranes from rat cerebral cortex, cerebellum, hippocampus, striatum or spinal cord. Membrane preparations were carried out according to Medina et al. (1990). Briefly, brains were rapidly dissected out on ice and the different structures were homogenized in 10 volumes of 0.32 M sucrose and centrifuged at 900×g for 10 min. The resulting supernatant was centrifuged at 100,000×g for 30 min and the pellet washed twice in 25 mM Tris HCl buffer pH 7.4 at 100,000×g for 30 min, and stored at -20° C. until used.
For [^3 H]-FNZ (84 Ci/mmol, NEN) displacement curves, different concentrations of DNF (0.3 nM to 1 μM) were added to 0.3 mg membrane protein suspended in 1 ml of 25 mM Tris HCl buffer in presence of 0.6 nM of the radioligand. Protein determination was carried out by using the method of Lowry et al. (1951). Nonspecific binding (<5%) was determined in parallel incubations with 10 μM FNZ (Hoffmann-La Roche). The incubation was carried out at 4° C. for 2 h. The assays were determined by filtration under vacuum through Whatman GF/A glass fiber filters, and two washes with 3 ml each of incubation medium. Filters were dried and counted after the addition of 5 ml 2,5-diphenyl-oxazole (PPO)-xylene as scintillation fluid.

Series [4] deals with central benzodiazepine receptor (Rattus norvegicus, UniProt P18508+P62813). The series is described as above. The arrangement: washed crude synaptosomal membranes from rat cerebral cortex; from tissue; host or cells: Wistar rat cerebral cortex, cerebellum, hippocampus, striatum, spinal cord (crude synaptosomal membranes); species or system rat (Wistar). The conditions noted are these: Ki, [3H]-FNZ binding, rat cerebellum. The protocol: as §1
Sequence of central benzodiazepine receptor (Rattus norvegicus, UniProt P18508+P62813) (P62813 28-455): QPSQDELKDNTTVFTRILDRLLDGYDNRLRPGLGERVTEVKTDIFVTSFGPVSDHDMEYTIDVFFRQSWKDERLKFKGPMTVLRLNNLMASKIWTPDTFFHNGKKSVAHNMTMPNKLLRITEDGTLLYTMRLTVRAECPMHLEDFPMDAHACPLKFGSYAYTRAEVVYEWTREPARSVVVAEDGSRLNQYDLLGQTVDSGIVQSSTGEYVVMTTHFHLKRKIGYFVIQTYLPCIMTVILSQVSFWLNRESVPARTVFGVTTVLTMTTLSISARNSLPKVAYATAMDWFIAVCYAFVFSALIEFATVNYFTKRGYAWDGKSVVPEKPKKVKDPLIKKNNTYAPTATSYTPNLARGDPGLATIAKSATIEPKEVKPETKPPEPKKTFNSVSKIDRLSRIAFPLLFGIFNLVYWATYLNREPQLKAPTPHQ
Sequence of central benzodiazepine receptor (Rattus norvegicus, UniProt P18508+P62813) (P18508 39-466): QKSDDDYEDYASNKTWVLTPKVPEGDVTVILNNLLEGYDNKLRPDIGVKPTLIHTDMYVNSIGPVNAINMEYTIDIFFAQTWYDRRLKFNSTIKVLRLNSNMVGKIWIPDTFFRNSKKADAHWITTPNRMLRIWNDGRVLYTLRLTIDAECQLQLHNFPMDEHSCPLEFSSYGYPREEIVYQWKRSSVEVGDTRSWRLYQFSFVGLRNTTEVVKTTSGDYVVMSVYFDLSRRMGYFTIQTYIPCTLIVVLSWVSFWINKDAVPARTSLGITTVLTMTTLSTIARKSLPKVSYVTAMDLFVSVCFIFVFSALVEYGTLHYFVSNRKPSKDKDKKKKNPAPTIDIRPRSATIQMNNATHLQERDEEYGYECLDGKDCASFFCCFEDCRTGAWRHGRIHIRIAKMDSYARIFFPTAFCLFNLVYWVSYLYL
Sequence of central benzodiazepine receptor (Rattus norvegicus, UniProt P18508+P62813) (P63138 26-474 partner): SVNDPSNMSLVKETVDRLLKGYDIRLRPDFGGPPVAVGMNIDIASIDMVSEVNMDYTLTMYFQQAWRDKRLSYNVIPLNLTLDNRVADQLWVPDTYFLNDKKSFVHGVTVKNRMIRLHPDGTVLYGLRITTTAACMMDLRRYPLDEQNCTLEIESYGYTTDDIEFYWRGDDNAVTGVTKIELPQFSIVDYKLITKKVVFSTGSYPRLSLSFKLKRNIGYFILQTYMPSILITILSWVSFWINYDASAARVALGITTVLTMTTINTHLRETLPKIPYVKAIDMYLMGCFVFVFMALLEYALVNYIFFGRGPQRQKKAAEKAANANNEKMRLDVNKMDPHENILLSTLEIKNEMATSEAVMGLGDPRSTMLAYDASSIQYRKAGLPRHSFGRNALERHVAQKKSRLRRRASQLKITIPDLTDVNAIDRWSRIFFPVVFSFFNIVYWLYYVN
Displacement curves were performed using [^3 ]-FNZ or [^3 H]-zolpidem ([^3 H]-ZOLP) as radioligands in washed crude synaptosomal membranes from rat cerebral cortex, cerebellum, hippocampus, striatum or spinal cord. Membrane preparations were carried out according to Medina et al. (1990). Briefly, brains were rapidly dissected out on ice and the different structures were homogenized in 10 volumes of 0.32 M sucrose and centrifuged at 900×g for 10 min. […]
For [^3 H]-FNZ (84 Ci/mmol, NEN) displacement curves, different concentrations of DNF (0.3 nM to 1 μM) were added to 0.3 mg membrane protein suspended in 1 ml of 25 mM Tris HCl buffer in presence of 0.6 nM of the radioligand. […] Nonspecific binding (<5%) was determined in parallel incubations with 10 μM FNZ (Hoffmann-La Roche). […] The assays were determined by filtration under vacuum through Whatman GF/A glass fiber filters, and two washes with 3 ml each of incubation medium. Filters were dried and counted after the addition of 5 ml 2,5-diphenyl-oxazole (PPO)-xylene as scintillation fluid.

Series [5] deals with T1, central benzodiazepine receptor type I (Rattus norvegicus, UniProt P18508+P62813).
T1 construct: washed crude synaptosomal membranes from rat cerebral cortex; from tissue; host or cells: Wistar rat cerebral cortex, striatum, cerebellum (crude synaptosomal membranes)
T1 sequence (P62813 28-455): as the sequence (P62813 28-455) above
T1 sequence (P18508 39-466): as the sequence (P18508 39-466) above
T1 sequence (P63138 25-474 partner limits assumed): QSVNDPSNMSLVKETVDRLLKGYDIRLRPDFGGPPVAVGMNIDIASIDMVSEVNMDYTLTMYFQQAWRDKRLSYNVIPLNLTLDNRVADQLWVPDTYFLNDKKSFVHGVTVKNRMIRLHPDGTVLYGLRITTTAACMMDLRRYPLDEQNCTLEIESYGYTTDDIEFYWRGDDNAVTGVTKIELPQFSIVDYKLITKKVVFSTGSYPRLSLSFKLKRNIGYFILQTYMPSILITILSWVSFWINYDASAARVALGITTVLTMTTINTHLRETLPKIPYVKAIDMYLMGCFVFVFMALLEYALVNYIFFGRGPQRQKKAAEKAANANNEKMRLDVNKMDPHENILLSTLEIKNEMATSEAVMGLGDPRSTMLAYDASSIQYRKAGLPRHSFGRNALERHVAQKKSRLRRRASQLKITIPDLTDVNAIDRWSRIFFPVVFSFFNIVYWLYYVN
Nature of the series: [3H]-zolpidem binding to rat synaptosomal membranes. Set-up: species or system rat (Wistar). The conditions noted are these: read-out: Ki, [3H]-ZOLP binding. How it is done:
as §1, §3
For [^3 H]-ZOLP (50.8 Ci/mmol, NEN) binding assays we used the technique of Arbilla et al. (1986), slightly modified as follows: displacement curves were done with 1 nM of the radioligand and 10 μM zolpidem to determine the nonspecific binding (<15%). The incubation of the samples (0.4 mg protein in 1 ml of 50 mM Tris HCl buffer, pH 7.4, 120 mM NaCl, 5 mM KCl) was carried out at 4' C. during 30 min. […]

Regarding `O=c1cc(-c2cccc([N+](=O)[O-])c2)oc2ccc([N+](=O)[O-])cc12` [Compound (II), 6,3'-dinitroflavone], the spontaneous ambulatory locomotion entry in the series with mice (0.3 mg/kg, p<0.05) is on record as “slight increase”; in the series on mice (up to 3 mg/kg) it was “no effect on spontaneous ambulatory locomotion”. In addition, in the series with mice (10 mg/kg, p<0.01), the “reduction in the locomotion” value was 55%. The inhibitory constant (Ki) (in general, a measure of affinity in units of concentration, obtained from inhibition or displacement) in series [1] is 20 nM; in series [3] (rat cerebral cortex) it was 25.9 ± 3.1 nM; in series [3] (rat hippocampus), 36.1 ± 5 nM; in series [3] (rat spinal cord), 48.1 ± 5.5 nM; in series [3] (rat striatum and spinal cord (range over both)), 44 to 48 nM; in series [3] (rat striatum), 44.1 ± 4.9 nM. Further, the Ki in series [4] was 17 nM and 17.2 nM; in series [5] (rat cerebellum, n=3) it was 17 ± 1.5 nM; in series [5] (rat cerebral cortex, n=5) it was 17.2 ± 3.7 nM. For the same compound, the “displacement of [3H]-prazosin binding” value in the series on α1 adrenergic receptors is “did not displace”. The “test session performance of inhibitory avoidance” value in the series with rats (rats, i.p., 100 μg/kg, pre or posttraining) is given as “no effect”. For the same compound, in the series on rats (up to 10 mg/kg as worded), the amnesic effects result is “did not evidence anticonvulsant, myorelaxant, amnesic”. The “displacement of [3H]-8-HO-DPAT binding” value in series [2] is reported as “did not displace”.
